How the values were obtained:
[1] = Toxicity in nude BALB/c mouse assessed as change in platelet level at 40 to 80 mg/kg, po once daily for 4 weeks measured post-last dose; format: organism-based; conditions: in vivo, 672 h
[2] = biological target: Interferon-induced, double-stranded RNA-activated protein kinase (Homo sapiens) (UniProt P19525); experiment: Inhibition of recombinant human PKR (252 to end residues) assessed as residual activity at 10 uM using RSRSRSRSRSRSRSR as substrate measured after 40 mins in presence of [gamma33P]ATP by scintillation counting method
[3] = biological target: Protein kinase C alpha type (Homo sapiens) (UniProt P17252); experiment: Inhibition of recombinant full-length human PKCalpha assessed as residual activity at 10 uM using histone H1 as substrate measured after 40 mins in presence of [gamma33P]ATP by scintillation counting method
[4] = Toxicity in nude BALB/c mouse assessed as change in uric acid level at 40 to 80 mg/kg, po once daily for 4 weeks measured post-last dose; format: organism-based; conditions: in vivo, 672 h
[5] = biological target: 5'-AMP-activated protein kinase catalytic subunit alpha-1 (Homo sapiens) (UniProt Q13131); experiment: Inhibition of recombinant full-length human AMPKalpha1 assessed as residual activity at 10 uM using AMARAASAAALARRR as substrate measured after 40 mins in presence of [gamma33P]ATP by scintillation counting method
[6] = system: Homeodomain-interacting protein kinase 2 (Homo sapiens), Q9H2X6 [UNDEFINED MUTATION]; experiment: Inhibition of recombinant human HIPK2 I471N mutant (165 to 564 residues) assessed as residual activity at 10 uM using myelin basic protein as substrate measured after 40 mins in presence of [gamma33P]ATP by scintillation counting method
[7] = biological target: Mitogen-activated protein kinase 1 (Homo sapiens) (UniProt P28482); experiment: Inhibition of recombinant full-length human MAPK1 assessed as residual activity at 10 uM using myelin basic protein as substrate measured after 40 mins in presence of [gamma33P]ATP by scintillation counting method
[8] = biological target: Aurora kinase C (Homo sapiens) (UniProt Q9UQB9); experiment: Inhibition of recombinant human AURKC (35 to end residues) assessed as residual activity at 10 uM using AKRRRLSSLRA as substrate measured after 40 mins in presence of [gamma33P]ATP by scintillation counting method
[9] = biological target: Serine/threonine-protein kinase 24 (Homo sapiens) (UniProt Q9Y6E0); experiment: Inhibition of recombinant human MST3 (1 to 304 residues) assessed as residual activity at 10 uM using ERMRPRKRQGSVRRRV as substrate measured after 40 mins in presence of [gamma33P]ATP by scintillation counting method
[10] = species on record: Homo sapiens; experiment: Inhibition of recombinant full-length human AURKA I31F mutant assessed as residual activity at 10 uM using LRRASLG as substrate measured after 40 mins in presence of [gamma33P]ATP by scintillation counting method
[11] = biological target: Ephrin type-A receptor 8 (Homo sapiens) (UniProt P29322); experiment: Inhibition of recombinant human EphA8 (615 to 911 residues) assessed as residual activity at 10 uM using KTFCGTPEYLAPEVRREPRILSEEEQEMFRDFDYIADWC as substrate measured after 40 mins in presence of [gamma33P]ATP by scintillation counting method
[12] = biological target: Serine/threonine-protein kinase SBK1 (Homo sapiens) (UniProt Q52WX2); experiment: Inhibition of recombinant full-length human SBK1 assessed as residual activity at 10 uM using KKLRRTLSVA as substrate measured after 120 mins in presence of [gamma33P]ATP by scintillation counting method
[13] = biological target: Interleukin-1 receptor-associated kinase 1 (Homo sapiens) (UniProt P51617); experiment: Inhibition of recombinant human IRAK1 (194 to end residues) assessed as residual activity at 10 uM using myelin basic protein as substrate measured after 40 mins in presence of [gamma33P]ATP by scintillation counting method
[14] = biological target: Tyrosine-protein kinase Yes (Homo sapiens) (UniProt P07947); experiment: Inhibition of recombinant full-length human Yes assessed as residual activity at 10 uM using poly(Glu, Tyr) 4:1 as substrate measured after 40 mins in presence of [gamma33P]ATP by scintillation counting method
[15] = species on record: Mus musculus; experiment: Inhibition of recombinant mouse ABL L782P/G784R/W785L/L786V mutant (27 to end residues) assessed as residual activity at 10 uM using EAIYAAPFAKKK as substrate measured after 40 mins in presence of [gamma33P]ATP by scintillation counting method
[16] = biological target: Serine/threonine-protein kinase pim-2 (Homo sapiens) (UniProt Q9P1W9); experiment: Inhibition of recombinant human Pim2 (2 to end residues) assessed as residual activity at 10 uM using RSRHSSYPAGT as substrate measured after 40 mins in presence of [gamma33P]ATP by scintillation counting method
[17] = biological target: DNA-dependent protein kinase catalytic subunit (Homo sapiens) (UniProt P78527); experiment: Inhibition of recombinant full-length human DNA-PK assessed as residual activity at 10 uM using GST-cMyc-p53 as substrate measured after 40 mins by fluorescence assay
[18] = biological target: MAP kinase-activated protein kinase 3 (Homo sapiens) (UniProt Q16644); experiment: Inhibition of recombinant human MAPKAPK3 (2 to end residues) assessed as residual activity at 10 uM using KKLNRTLSVA as substrate measured after 40 mins in presence of [gamma33P]ATP by scintillation counting method
[19] = system: HCT-116; experiment: Antitumor activity against human HCT116 cells xenografted in nude BALB/c mouse assessed as tumor growth inhibition at 40 mg/kg, po administered once daily for 4 weeks measured post-last dose relative to control; format: functional; conditions: HCT-116, po, 672 h, read-out: TGI
[20] = biological target: Calcium/calmodulin-dependent protein kinase type 1D (Homo sapiens) (UniProt Q8IU85); experiment: Inhibition of recombinant full-length human CaMK1delta assessed as residual activity at 10 uM using calmodulin as substrate measured after 40 mins in presence of [gamma33P]ATP by scintillation counting method
[21] = biological target: Serine/threonine-protein kinase PLK2 (Homo sapiens) (UniProt Q9NYY3); experiment: Inhibition of human Snk (65 to 409 residues) using casein as substrate measured after 40 mins in presence of [gamma33P]ATP by scintillation counting method; design: scale not given: the % may be the effect or the level left
[22] = biological target: Serine/threonine-protein kinase 16 (Homo sapiens) (UniProt O75716); experiment: Inhibition of human STK16 assessed as residual activity at 10 uM by radiometric method
[23] = biological target: Mitogen-activated protein kinase kinase kinase kinase 5 (Homo sapiens) (UniProt Q9Y4K4); experiment: Inhibition of recombinant full-length human MAP4K5 assessed as residual activity at 10 uM using myelin basic protein as substrate measured after 40 mins in presence of [gamma33P]ATP by scintillation counting method
[24] = system: Angiopoietin-1 receptor (Homo sapiens), Q02763 [Q939H,Q940H,R849W]; experiment: Inhibition of human Tie2 Q939H/Q940H/R849W mutant (771 to end residues) using EFPIYDFLPAKKK as substrate measured after 40 mins in presence of [gamma33P]ATP by scintillation counting method; design: scale not given: the % may be the effect or the level left

Homeodomain-interacting protein kinase 2 (Homo sapiens), Q9H2X6 [UNDEFINED MUTATION], sequence (Q9H2X6 whole entry, looked up, stated change not applied, the tested form may be a part): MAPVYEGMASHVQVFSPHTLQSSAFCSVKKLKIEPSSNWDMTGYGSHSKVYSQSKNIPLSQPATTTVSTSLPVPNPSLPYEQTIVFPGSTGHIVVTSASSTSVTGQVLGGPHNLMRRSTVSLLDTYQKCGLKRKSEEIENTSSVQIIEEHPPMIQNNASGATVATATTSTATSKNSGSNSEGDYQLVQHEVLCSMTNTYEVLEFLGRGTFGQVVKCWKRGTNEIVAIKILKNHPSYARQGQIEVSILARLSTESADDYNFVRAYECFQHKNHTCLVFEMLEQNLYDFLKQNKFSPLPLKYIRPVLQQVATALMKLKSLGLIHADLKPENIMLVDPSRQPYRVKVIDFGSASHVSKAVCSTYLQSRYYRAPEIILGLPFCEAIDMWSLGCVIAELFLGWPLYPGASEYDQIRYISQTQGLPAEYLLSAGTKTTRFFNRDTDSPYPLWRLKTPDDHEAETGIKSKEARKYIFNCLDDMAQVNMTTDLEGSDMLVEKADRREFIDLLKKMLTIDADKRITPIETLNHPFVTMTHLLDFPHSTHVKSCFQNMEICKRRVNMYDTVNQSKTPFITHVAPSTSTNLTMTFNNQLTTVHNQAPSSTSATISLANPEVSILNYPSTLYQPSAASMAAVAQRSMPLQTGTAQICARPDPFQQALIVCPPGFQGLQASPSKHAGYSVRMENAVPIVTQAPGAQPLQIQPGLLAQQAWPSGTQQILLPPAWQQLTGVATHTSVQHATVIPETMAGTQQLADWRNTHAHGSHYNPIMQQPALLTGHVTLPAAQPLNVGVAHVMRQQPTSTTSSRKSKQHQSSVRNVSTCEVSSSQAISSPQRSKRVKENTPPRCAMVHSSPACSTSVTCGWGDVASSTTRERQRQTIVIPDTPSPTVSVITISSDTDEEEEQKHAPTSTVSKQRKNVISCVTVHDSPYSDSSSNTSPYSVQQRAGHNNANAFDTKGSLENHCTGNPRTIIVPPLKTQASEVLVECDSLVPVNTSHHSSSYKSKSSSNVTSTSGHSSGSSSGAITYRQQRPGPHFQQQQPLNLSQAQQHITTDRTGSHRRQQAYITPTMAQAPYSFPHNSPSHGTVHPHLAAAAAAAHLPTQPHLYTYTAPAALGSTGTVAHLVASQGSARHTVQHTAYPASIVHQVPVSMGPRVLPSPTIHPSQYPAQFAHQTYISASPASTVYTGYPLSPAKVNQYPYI
Aurora kinase C (Homo sapiens), sequence (Q9UQB9 whole entry, the tested form may be a part): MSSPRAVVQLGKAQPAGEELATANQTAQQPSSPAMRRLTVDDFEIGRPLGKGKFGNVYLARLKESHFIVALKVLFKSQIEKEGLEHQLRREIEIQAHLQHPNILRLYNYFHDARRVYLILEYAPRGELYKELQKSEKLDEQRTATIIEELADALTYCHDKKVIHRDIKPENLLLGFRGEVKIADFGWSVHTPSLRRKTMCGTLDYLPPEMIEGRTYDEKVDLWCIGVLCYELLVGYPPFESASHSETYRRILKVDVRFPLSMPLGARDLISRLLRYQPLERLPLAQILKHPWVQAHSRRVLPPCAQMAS
Serine/threonine-protein kinase SBK1 (Homo sapiens), sequence (Q52WX2 whole entry): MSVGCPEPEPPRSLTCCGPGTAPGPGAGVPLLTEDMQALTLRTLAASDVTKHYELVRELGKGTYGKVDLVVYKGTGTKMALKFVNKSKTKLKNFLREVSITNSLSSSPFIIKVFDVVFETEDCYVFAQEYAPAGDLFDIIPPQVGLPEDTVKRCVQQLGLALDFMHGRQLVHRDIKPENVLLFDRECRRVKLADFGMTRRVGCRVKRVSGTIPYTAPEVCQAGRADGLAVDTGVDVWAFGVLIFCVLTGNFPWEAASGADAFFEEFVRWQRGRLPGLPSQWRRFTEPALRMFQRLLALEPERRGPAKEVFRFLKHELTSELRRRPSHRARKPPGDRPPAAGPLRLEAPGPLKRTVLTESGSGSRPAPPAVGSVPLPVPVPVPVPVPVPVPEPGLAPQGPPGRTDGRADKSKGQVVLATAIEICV
Serine/threonine-protein kinase 24 (Homo sapiens), sequence (Q9Y6E0 whole entry, looked up, the tested form may be a part): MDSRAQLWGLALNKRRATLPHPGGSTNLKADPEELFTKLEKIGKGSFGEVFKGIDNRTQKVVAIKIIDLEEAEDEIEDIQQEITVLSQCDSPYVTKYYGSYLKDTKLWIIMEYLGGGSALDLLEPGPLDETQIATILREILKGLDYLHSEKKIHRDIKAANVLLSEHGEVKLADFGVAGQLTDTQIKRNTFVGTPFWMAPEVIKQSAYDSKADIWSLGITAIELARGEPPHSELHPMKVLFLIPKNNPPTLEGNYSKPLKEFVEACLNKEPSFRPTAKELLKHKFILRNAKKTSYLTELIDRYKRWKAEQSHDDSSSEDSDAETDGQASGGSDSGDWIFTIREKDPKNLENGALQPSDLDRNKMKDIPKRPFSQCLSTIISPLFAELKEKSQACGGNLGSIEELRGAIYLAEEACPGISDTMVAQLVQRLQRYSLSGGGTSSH
Tyrosine-protein kinase Yes (Homo sapiens), sequence (P07947 2-543 limits assumed): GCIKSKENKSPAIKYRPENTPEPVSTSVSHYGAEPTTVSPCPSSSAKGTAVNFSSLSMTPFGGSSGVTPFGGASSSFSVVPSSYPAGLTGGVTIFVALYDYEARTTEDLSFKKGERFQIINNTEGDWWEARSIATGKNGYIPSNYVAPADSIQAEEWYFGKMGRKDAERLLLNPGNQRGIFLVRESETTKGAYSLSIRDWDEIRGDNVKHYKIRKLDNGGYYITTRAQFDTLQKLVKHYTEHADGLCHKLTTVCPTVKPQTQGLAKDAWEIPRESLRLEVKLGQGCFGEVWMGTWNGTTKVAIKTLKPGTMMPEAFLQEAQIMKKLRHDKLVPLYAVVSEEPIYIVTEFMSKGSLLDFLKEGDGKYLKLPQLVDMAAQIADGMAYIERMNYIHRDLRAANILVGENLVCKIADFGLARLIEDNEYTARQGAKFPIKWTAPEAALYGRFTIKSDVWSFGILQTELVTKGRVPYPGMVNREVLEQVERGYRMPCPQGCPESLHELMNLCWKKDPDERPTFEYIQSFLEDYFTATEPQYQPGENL
Serine/threonine-protein kinase PLK2 (Homo sapiens), sequence (Q9NYY3 whole entry, looked up, the tested form may be a part): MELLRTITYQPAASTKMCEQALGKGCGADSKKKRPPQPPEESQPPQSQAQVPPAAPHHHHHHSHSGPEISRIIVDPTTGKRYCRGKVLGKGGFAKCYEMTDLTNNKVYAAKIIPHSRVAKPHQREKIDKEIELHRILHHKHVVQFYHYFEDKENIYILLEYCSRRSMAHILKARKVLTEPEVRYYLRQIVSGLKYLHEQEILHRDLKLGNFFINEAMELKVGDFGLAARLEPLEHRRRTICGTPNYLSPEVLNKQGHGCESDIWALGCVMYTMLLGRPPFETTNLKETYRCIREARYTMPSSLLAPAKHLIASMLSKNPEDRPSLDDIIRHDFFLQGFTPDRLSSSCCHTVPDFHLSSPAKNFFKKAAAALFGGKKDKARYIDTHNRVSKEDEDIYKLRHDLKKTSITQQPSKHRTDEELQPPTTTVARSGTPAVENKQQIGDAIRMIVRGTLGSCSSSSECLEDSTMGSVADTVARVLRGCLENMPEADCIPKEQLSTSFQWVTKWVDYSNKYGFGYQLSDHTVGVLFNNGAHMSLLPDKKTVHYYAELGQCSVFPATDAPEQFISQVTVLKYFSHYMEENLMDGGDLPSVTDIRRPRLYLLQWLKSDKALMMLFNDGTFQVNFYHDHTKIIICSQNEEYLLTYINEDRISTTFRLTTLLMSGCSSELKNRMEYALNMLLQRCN
MAP kinase-activated protein kinase 3 (Homo sapiens), sequence (Q16644 whole entry, looked up): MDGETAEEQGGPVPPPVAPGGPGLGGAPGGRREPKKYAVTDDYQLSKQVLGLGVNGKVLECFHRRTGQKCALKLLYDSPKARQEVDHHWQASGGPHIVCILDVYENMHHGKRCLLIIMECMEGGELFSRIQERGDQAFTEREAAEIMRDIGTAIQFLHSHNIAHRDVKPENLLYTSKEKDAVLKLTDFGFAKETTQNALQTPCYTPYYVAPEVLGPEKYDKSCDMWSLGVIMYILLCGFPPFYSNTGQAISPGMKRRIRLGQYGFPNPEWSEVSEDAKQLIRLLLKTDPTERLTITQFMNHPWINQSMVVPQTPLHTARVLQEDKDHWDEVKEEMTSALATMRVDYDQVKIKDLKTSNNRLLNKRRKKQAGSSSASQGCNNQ
Serine/threonine-protein kinase pim-2 (Homo sapiens), sequence (Q9P1W9 whole entry, looked up): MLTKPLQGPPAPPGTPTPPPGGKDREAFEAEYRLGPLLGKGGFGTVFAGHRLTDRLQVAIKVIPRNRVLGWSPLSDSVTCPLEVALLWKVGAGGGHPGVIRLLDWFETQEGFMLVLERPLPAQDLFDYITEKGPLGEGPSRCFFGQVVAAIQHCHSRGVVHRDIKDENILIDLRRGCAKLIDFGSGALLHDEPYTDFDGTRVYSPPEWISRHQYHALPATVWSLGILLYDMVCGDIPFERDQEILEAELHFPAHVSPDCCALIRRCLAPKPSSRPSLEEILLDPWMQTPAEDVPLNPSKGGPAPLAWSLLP

Cc1cc(C)c(CNc2nc(Cl)nc3c2ncn3C2CCCC2)c(=O)[nH]1
Activity [1]: Non-Toxic
Activity [2]: 109%
Activity [3]: 88.5%
Activity [4]: Non-Toxic
Activity [5]: 120%
Activity [6]: 104%
Activity [7]: 97.5%
Activity [8]: 106%
Activity [9]: 110%
Activity [10]: 103%
Activity [11]: 97%
Activity [12]: 107%
Activity [13]: 102%
Activity [14]: 79%
Activity [15]: 101%
Activity [16]: 104%
Activity [17]: 99%
Activity [18]: 106%
inhibition in vivo at 40 mg/kg [19]: 39.9%
Activity [20]: 107%
Activity [21]: 106%
Activity [22]: 102%
Activity [23]: 130%
Activity [24]: 102%

— ChEMBL document CHEMBL4311992, “Discovery of 3-(((9H-purin-6-yl)amino)methyl)-4,6-dimethylpyridin-2(1H)-one derivatives as novel tubulin polymerization inhibitors for treatment of cancer” (Eur J Med Chem, 2019)
